{
  "source": "patent US8921362B2",
  "about": "“6,7-dialkoxy quinazoline derivatives and methods of treating drug resistant and other tumors” (Natco Pharma Limited, priority 2008, dated 2014)",
  "experiment_in_all_cases": "KinomeScan",
  "assay_type_in_all_cases": "binding",
  "conditions_in_all_cases": "read-out: % Ctrl @ 10000 nM",
  "key": {"KIT": {"target": "T1, KIT (Homo sapiens, UniProt P10721)", "T1 construct": "host or cells: T7 phage grown in E. coli host derived from BL21", "procedure,_shortened": "(§1)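 In this phage-display binding screen, compound competes with immobilized ligand for the kinase fusion, and bead-bound phage, eluted after washing, is titered by qPCR.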"}, "FLT4": {"target": "T2, FLT4 (Homo sapiens, UniProt P35916)", "T2 construct": "host or cells: T7 phage in E. coli host derived from BL21", "procedure,_shortened": "as §1"}, "EPHB2": {"target": "T3, EPHB2 (Homo sapiens, UniProt P29323)", "T3 construct": "purchased Ambit Biosciences Corp; host or cells: T7 phage in E. coli host derived from BL21", "procedure,_shortened": "as §1"}, "MARK3": {"target": "T4, MARK3 (Homo sapiens, UniProt P27448)", "T4 construct": "host or cells: E. coli host derived from the BL21 strain, infected with T7 phage", "procedure,_shortened": "as §1"}, "DCAMKL1": {"target": "T5, DCAMKL1 (Homo sapiens, UniProt O15075)", "T5 construct": "purchased Ambit Biosciences Corp (KinomeScan); host or cells: T7 phage in E. coli host derived from BL21", "procedure,_shortened": "as §1"}, "TAOK3": {"target": "T6, TAOK3 (Homo sapiens, UniProt Q9H2K8)", "T6 construct": "host or cells: T7 phage grown in E. coli (BL21-derived)", "procedure,_shortened": "as §1"}, "LTK": {"target": "T7, LTK (Homo sapiens, UniProt P29376)", "T7 construct": "host or cells: E. coli host derived from the BL21 strain, infected with T7 phage", "T7 sequence (P29376 17-864)": "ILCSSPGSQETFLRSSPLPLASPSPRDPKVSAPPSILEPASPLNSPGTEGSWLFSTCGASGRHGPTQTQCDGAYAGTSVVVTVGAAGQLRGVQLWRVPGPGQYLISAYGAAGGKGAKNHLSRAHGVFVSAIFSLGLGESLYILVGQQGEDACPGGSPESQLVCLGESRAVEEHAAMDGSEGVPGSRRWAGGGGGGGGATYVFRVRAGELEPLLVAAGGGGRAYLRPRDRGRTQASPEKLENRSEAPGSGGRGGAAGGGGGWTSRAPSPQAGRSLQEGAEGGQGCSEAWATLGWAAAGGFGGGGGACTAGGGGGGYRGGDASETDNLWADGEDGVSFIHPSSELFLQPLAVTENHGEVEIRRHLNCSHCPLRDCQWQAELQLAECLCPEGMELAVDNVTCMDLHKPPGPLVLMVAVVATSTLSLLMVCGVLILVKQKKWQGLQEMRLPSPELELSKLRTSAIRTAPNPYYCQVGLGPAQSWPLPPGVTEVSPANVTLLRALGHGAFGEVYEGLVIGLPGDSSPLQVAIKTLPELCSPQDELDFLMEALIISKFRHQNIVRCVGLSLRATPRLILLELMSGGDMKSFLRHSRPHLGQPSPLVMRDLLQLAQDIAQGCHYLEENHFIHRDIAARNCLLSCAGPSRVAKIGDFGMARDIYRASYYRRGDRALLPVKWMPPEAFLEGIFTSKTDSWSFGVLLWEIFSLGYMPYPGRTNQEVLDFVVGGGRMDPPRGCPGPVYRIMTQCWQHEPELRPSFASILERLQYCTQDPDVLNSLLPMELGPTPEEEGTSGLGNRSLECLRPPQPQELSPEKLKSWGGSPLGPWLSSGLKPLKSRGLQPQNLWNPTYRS", "procedure,_shortened": "as §1"}, "BMPR1A": {"target": "T8, BMPR1A (Homo sapiens, UniProt P36894)", "T8 construct": "host or cells: E. coli host derived from BL21", "procedure,_shortened": "as §1"}, "PAK1": {"target": "T9, PAK1 (Homo sapiens, UniProt Q13153)", "T9 construct": "host or cells: E. coli host derived from BL21, infected with T7 phage", "procedure,_shortened": "as §1"}, "BRAF(V600E)": {"target": "T10, BRAF(V600E) (Homo sapiens, UniProt P15056, V600E)", "T10 construct": "host or cells: E. coli host derived from BL21", "procedure,_shortened": "as §1"}, "TLK2": {"target": "T11, TLK2 (Homo sapiens, UniProt Q86UE8)", "T11 construct": "host or cells: E. coli host derived from BL21, T7 phage", "procedure,_shortened": "as §1"}, "BRK": {"target": "T12, BRK (Homo sapiens, UniProt Q13882)", "T12 construct": "host or cells: E. coli host derived from BL21", "procedure,_shortened": "as §1"}, "[1]": {"target": "T13, JAK2(JH1domain- catalytic) (Homo sapiens, UniProt O60674)", "T13 construct": "JAK2(JH1domain- catalytic); host or cells: T7 phage grown in E. coli host derived from BL21", "T13 sequence (O60674 849-1124 limits assumed)": "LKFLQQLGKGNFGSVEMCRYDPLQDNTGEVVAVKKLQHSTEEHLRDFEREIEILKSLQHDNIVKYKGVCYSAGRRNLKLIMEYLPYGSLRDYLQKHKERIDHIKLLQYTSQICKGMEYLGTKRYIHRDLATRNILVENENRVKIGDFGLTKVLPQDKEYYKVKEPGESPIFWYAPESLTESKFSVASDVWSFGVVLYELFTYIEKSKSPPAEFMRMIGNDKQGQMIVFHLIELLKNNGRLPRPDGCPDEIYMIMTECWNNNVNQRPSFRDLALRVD", "procedure,_shortened": "as §1"}, "AXL": {"target": "T14, AXL (Homo sapiens, UniProt P30530)", "T14 construct": "host or cells: E. coli host derived from BL21", "procedure,_shortened": "as §1"}, "FGFR3": {"target": "T15, FGFR3 (Homo sapiens, UniProt P22607)", "T15 construct": "host or cells: T7 phage in E. coli host derived from BL21", "procedure,_shortened": "as §1"}, "EPHA5": {"target": "T16, EPHA5 (Homo sapiens, UniProt P54756)", "T16 construct": "purchased Ambit Biosciences Corp; host or cells: T7 phage in E. coli host derived from BL21", "procedure,_shortened": "as §1"}, "[2]": {"target": "T17, EGFR(L747-E749del, A750P) (Homo sapiens, UniProt P00533, A750P/DEL747-749)", "T17 construct": "purchased Ambit Biosciences Corp (KinomeScan); host or cells: T7 phage in E. coli host derived from BL21", "T17 sequence (P00533 with tags, fused parts or gaps DEL747-749/A750P)": "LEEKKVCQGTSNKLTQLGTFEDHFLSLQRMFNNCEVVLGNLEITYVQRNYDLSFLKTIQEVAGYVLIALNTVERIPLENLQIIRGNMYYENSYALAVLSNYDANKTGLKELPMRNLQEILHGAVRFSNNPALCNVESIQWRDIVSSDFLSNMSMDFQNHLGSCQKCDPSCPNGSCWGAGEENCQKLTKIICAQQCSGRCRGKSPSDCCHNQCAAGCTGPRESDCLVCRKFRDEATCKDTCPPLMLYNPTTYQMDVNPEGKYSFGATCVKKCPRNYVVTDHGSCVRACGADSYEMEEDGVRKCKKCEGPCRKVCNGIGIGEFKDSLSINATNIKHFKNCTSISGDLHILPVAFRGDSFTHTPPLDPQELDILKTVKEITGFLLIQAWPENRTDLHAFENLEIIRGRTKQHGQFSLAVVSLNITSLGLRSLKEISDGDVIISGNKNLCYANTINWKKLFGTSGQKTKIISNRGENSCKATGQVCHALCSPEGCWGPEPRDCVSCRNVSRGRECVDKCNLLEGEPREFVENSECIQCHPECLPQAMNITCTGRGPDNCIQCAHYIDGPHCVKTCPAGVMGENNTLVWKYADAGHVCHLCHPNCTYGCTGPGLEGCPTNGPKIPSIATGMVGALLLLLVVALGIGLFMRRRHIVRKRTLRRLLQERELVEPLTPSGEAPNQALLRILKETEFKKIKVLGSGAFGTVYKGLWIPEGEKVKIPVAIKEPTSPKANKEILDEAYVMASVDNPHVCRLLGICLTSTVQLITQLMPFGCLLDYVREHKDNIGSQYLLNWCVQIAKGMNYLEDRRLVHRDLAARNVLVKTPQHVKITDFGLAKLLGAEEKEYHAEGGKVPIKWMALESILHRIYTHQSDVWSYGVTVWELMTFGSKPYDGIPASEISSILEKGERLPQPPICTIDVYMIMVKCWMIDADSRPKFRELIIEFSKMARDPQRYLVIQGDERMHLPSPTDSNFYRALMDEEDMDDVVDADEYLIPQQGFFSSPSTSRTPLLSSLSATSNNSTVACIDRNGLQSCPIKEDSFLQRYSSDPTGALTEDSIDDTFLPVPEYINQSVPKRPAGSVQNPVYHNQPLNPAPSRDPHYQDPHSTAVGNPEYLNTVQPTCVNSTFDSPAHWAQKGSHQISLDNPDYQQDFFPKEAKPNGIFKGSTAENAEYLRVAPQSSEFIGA", "procedure,_shortened": "as §1"}, "[3]": {"target": "T18, RPS6KA4(Kin.Dom.-1-N-terminal) (Homo sapiens, UniProt O75676)", "T18 construct": "RPS6KA4(Kin.Dom.-1-N-terminal); host or cells: E. coli host derived from BL21, T7 phage display", "T18 sequence (O75676 33-301 limits assumed)": "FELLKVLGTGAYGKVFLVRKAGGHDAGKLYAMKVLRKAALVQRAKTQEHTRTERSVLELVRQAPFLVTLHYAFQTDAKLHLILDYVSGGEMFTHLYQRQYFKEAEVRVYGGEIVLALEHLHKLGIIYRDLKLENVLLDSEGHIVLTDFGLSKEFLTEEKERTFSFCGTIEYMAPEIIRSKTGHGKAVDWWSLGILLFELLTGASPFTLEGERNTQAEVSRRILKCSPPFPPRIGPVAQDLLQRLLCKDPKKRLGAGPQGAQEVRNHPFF", "procedure,_shortened": "as §1"}, "MYO3A": {"target": "T19, MYO3A (Homo sapiens, UniProt Q8NEV4)", "T19 construct": "host or cells: T7 phage grown in E. coli host derived from BL21", "procedure,_shortened": "as §1"}, "PCTK2": {"target": "T20, PCTK2 (Homo sapiens, UniProt Q00537)", "T20 construct": "host or cells: E. coli host derived from BL21, infected with T7 phage", "procedure,_shortened": "as §1"}, "IGF1R": {"target": "T21, IGF1R (Homo sapiens, UniProt P08069)", "T21 construct": "host or cells: T7 phage grown in E. coli host derived from BL21", "T21 sequence (P08069 31-1367)": "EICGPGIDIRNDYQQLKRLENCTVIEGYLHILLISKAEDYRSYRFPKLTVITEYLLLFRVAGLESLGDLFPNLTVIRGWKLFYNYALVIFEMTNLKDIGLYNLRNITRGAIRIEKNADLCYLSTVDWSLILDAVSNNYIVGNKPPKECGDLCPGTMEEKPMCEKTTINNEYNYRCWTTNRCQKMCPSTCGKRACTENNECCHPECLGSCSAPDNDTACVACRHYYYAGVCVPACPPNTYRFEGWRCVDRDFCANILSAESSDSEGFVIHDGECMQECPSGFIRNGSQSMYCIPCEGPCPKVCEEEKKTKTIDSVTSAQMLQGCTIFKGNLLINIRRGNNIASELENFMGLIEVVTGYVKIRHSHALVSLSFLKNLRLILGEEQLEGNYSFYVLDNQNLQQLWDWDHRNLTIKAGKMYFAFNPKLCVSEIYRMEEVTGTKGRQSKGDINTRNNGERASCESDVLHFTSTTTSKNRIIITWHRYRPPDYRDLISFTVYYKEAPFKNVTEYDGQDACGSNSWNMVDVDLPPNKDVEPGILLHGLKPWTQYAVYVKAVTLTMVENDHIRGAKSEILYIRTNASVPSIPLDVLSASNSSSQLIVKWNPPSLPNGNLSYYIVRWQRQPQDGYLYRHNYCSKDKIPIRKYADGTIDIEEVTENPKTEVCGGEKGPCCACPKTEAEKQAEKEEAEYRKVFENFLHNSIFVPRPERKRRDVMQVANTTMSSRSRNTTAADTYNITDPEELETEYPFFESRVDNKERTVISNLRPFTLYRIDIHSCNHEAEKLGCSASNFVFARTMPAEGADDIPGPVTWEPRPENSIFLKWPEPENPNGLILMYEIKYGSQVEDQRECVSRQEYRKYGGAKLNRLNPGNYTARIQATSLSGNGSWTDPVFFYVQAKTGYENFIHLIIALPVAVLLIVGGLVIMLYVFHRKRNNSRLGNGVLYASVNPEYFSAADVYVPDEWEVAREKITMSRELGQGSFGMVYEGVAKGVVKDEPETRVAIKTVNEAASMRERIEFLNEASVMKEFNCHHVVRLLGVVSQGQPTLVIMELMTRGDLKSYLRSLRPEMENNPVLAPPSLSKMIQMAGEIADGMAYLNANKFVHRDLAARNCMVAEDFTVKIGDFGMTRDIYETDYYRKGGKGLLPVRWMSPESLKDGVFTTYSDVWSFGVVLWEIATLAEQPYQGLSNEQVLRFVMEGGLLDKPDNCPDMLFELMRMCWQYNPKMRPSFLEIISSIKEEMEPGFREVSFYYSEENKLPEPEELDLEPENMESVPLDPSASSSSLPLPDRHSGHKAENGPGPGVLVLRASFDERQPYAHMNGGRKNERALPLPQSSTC", "procedure,_shortened": "as §1"}, "KIT(V559D, V654A)": {"target": "T22, KIT(V559D, V654A) (Homo sapiens, UniProt P10721, V559D/V654A)", "T22 construct": "host or cells: T7 phage grown in E. coli host derived from BL21", "procedure,_shortened": "as §1"}, "ACVR2A": {"target": "T23, ACVR2A (Homo sapiens, UniProt P27037)", "T23 construct": "host or cells: E. coli (BL21-derived), T7 phage lysate", "procedure,_shortened": "as §1"}, "MAP4K5": {"target": "T24, MAP4K5 (Homo sapiens, UniProt Q9Y4K4)", "T24 construct": "host or cells: E. coli host derived from the BL21 strain, infected with T7 phage", "procedure,_shortened": "as §1"}, "YANK3": {"target": "T25, YANK3 (Homo sapiens, UniProt Q86UX6)", "T25 construct": "host or cells: E. coli host derived from BL21, T7 phage", "procedure,_shortened": "as §1"}, "PIM2": {"target": "T26, PIM2 (Homo sapiens, UniProt Q9P1W9)", "T26 construct": "host or cells: T7 phage in E. coli host derived from BL21", "procedure,_shortened": "as §1"}, "RIPK4": {"target": "T27, RIPK4 (Homo sapiens, UniProt P57078)", "T27 construct": "host or cells: E. coli host derived from BL21, T7 phage display", "procedure,_shortened": "as §1"}, "MEK6": {"target": "T28, MEK6 (Homo sapiens, UniProt P52564)", "T28 construct": "host or cells: E. coli host derived from the BL21 strain, infected with T7 phage", "procedure,_shortened": "as §1"}, "PCTK3": {"target": "T29, PCTK3 (Homo sapiens, UniProt Q07002)", "T29 construct": "host or cells: E. coli host derived from BL21, infected with T7 phage", "procedure,_shortened": "as §1"}, "ABL1(F317L)": {"target": "T30, ABL1(F317L) (Homo sapiens, UniProt P00519, F317L)", "T30 construct": "host or cells: E. coli (BL21-derived), T7 phage lysate", "T30 sequence (P00519 whole entry F317L)": "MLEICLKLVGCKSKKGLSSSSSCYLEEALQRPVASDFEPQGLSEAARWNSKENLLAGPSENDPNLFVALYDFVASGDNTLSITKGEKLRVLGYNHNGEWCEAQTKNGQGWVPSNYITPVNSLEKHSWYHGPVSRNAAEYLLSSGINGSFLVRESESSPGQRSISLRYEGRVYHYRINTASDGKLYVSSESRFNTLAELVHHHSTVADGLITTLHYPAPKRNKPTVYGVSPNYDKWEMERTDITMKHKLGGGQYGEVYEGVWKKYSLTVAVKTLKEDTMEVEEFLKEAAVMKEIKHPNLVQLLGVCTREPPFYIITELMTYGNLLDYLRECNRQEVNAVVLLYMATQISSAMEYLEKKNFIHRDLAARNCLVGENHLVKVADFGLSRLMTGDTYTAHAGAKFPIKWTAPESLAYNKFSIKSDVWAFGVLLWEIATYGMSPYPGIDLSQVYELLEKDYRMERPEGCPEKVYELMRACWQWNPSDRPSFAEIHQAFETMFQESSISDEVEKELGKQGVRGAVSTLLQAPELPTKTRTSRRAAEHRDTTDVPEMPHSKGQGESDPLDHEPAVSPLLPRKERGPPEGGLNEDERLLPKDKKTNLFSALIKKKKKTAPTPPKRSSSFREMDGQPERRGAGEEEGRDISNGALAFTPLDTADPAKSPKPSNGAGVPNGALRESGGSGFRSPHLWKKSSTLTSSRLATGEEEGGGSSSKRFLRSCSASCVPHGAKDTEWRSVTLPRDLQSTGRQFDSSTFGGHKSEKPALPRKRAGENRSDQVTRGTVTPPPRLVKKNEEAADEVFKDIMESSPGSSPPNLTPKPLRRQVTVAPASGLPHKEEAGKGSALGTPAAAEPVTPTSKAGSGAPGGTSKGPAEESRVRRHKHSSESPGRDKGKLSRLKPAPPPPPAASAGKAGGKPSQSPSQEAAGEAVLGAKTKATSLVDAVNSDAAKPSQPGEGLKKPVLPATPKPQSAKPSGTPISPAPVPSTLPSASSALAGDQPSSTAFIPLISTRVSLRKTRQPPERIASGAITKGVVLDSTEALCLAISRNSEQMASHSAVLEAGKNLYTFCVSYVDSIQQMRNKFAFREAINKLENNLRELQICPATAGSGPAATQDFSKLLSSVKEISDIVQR", "procedure,_shortened": "as §1"}, "[4]": {"target": "T31, RPS6KA2(Kin.Dom.-2-C-terminal) (Homo sapiens, UniProt Q15349)", "T31 construct": "RPS6KA2(Kin.Dom.-2-C-terminal); host or cells: E. coli host derived from BL21, T7 phage display", "procedure,_shortened": "as §1"}},
  "data": [
    {"smiles": "C#Cc1cccc(Nc2ncnc3cc(OC)c(OCCCN4CCOCC4)cc23)c1", "note": "[NRC-2694, N-(3-ethynylphenyl)-7-methoxy-6-[3-(4-morpholinyl)propoxy]-4-quinazolinamine]", "values": [
      {"measurement": "remaining binding at 10 µM", "setting": "KIT", "value": 26, "unit": "%"},
      {"measurement": "remaining binding at 10 µM", "setting": "FLT4", "value": 66, "unit": "%"},
      {"measurement": "remaining binding at 10 µM", "setting": "EPHB2", "value": 83, "unit": "%"},
      {"measurement": "remaining binding at 10 µM", "setting": "MARK3", "value": 62, "unit": "%"},
      {"measurement": "remaining binding at 10 µM", "setting": "DCAMKL1", "value": 92, "unit": "%"},
      {"measurement": "remaining binding at 10 µM", "setting": "TAOK3", "value": 76, "unit": "%"},
      {"measurement": "remaining binding at 10 µM", "setting": "LTK", "value": 3.8, "unit": "%"},
      {"measurement": "remaining binding at 10 µM", "setting": "BMPR1A", "value": 100, "unit": "%"},
      {"measurement": "remaining binding at 10 µM", "setting": "PAK1", "value": 74, "unit": "%"},
      {"measurement": "remaining binding at 10 µM", "setting": "BRAF(V600E)", "value": 73, "unit": "%"},
      {"measurement": "remaining binding at 10 µM", "setting": "TLK2", "value": 82, "unit": "%"},
      {"measurement": "remaining binding at 10 µM", "setting": "BRK", "value": 46, "unit": "%"},
      {"measurement": "remaining binding at 10 µM", "setting": "[1]", "value": 38, "unit": "%"},
      {"measurement": "remaining binding at 10 µM", "setting": "AXL", "value": 25, "unit": "%"},
      {"measurement": "remaining binding at 10 µM", "setting": "FGFR3", "value": 100, "unit": "%"},
      {"measurement": "remaining binding at 10 µM", "setting": "EPHA5", "value": 86, "unit": "%"},
      {"measurement": "remaining binding at 10 µM", "setting": "[2]", "value": 0, "unit": "%"},
      {"measurement": "remaining binding at 10 µM", "setting": "[3]", "value": 84, "unit": "%"},
      {"measurement": "remaining binding at 10 µM", "setting": "MYO3A", "value": 70, "unit": "%"},
      {"measurement": "remaining binding at 10 µM", "setting": "PCTK2", "value": 72, "unit": "%"},
      {"measurement": "remaining binding at 10 µM", "setting": "IGF1R", "value": 74, "unit": "%"},
      {"measurement": "remaining binding at 10 µM", "setting": "KIT(V559D, V654A)", "value": 47, "unit": "%"},
      {"measurement": "remaining binding at 10 µM", "setting": "ACVR2A", "value": 92, "unit": "%"},
      {"measurement": "remaining binding at 10 µM", "setting": "MAP4K5", "value": 23, "unit": "%"},
      {"measurement": "remaining binding at 10 µM", "setting": "YANK3", "value": 100, "unit": "%"},
      {"measurement": "remaining binding at 10 µM", "setting": "PIM2", "value": 83, "unit": "%"},
      {"measurement": "remaining binding at 10 µM", "setting": "RIPK4", "value": 96, "unit": "%"},
      {"measurement": "remaining binding at 10 µM", "setting": "MEK6", "value": 75, "unit": "%"},
      {"measurement": "remaining binding at 10 µM", "setting": "PCTK3", "value": 82, "unit": "%"},
      {"measurement": "remaining binding at 10 µM", "setting": "ABL1(F317L)", "value": 33, "unit": "%"},
      {"measurement": "remaining binding at 10 µM", "setting": "[4]", "value": 78, "unit": "%"}
    ]}
  ]
}
